This is an account of results in patent US11806313B2, “Abiraterone acetate containing composition and application thereof” (Hunan Huize Biopharma S & T Co., Ltd, priority 2021, dated 2023).

Data set [1] is classed as physicochemical. From the text:
Therefore, the self-microemulsion system of the present invention can choose the mixture of glycerol monolinoleate (CC) and medium chain triglyceride (MCT) as the oil phase. […] Accordingly, when glycerol monolinoleate and medium chain triglyceride are used in combination as the oil phase, in order to ensure a larger drug loading capacity, the amount of CC in the oil phase should be as much as possible, while the amount of MCT should be as little as possible.
When PEG-40 hydrogenated castor oil (RH40) and 2-(2-ethoxyethoxy)ethanol (HP) are used in combination as the emulsion phase, in order to ensure the emulsification effect of the self-microemulsion system and to ensure a large drug loading capacity, one should increase the amount of RH40 in the emulsion phase while also reduce the amount of HP as much as possible.

For data set [2] the following is noted: cited from earlier work.
The conditions of data set [3]: cited from earlier work. This is another data set of the same source.
[4] abbreviates: high-fat diet (57% fat, 825 calories).
Setting [5] is: low-fat diet (7% fat, 300 calories).

Regarding `CC(=O)O[C@H]1CC[C@@]2(C)C(=CC[C@@H]3[C@@H]2CC[C@]2(C)C(c4cccnc4)=CC[C@@H]32)C1` [abiraterone acetate, (3β)-17-(3-pyridyl)androsta-5,16-dien-3-yl acetate], in data set [1], the “solubility in 2-(2-ethoxyethoxy)ethanol (HP)” value was “about 69.0 mg/g”, the “solubility in PEG-40 hydrogenated castor oil (RH40)” value is reported as “about 24.7 mg/g”, the “solubility in glycerol monolinoleate (CC)” value was “about 62.9 mg/g” and the “solubility in medium chain triglyceride (MCT)” value is “about 28.4 mg/g”. The solubility in water entry in data set [2] was “less than 0.01 mg/ml”. Moreover, in data set [3] (setting [4]), the “increase of AUC0-∞ with food” value was ~10 times and the “increase of Cmax with food” value is listed as “about 17 times”. Also, in data set [3] (setting [5]), the “increase of AUC0-∞ of abiraterone with food” value was ~5 times and the “increase of Cmax of abiraterone with food” value is listed as “about 7 times”.
